# Source: US20060116325A1, “Methods and compositions for inhibiting hiv-coreceptor interactions” (priority 2001, published 2006)
# Assays:
# [1] = biological target: CXCR4 (Homo sapiens, UniProt P61073); test: Ca2+ mobilization in THP-1 cells in response to SDF-1α (fura-2); type: cell-based; conditions: peptide 500 μM preincubated, SDF-1α 100 ng/ml, FIG. 6
# Method: FIGS. 6A through 6D depict the effect of peptide pre-treatment on the mobilization of intracellular Ca^2+ in THP-1 cells in response to SDF-1α. Cells loaded with fura-2 were preincubated with peptide 15K (FIG. 6C), 15D (FIG. 6B) and 15CW (FIG. 6D) at a final concentration of 500 μM for 3 min prior to stimulation with SDF-1α (100 ng/ml).
# THP-1 cells (12×10^6/ml in RPMI 1640 containing 10% FSB) were loaded in the presence of 5 μM fura-2 AM (Molecular Probes, Eugene, Oreg.) at 22° C. for 30 min in the dark. Subsequently, cells were washed three times and resuspended (10^6 cells/ml) in the buffer containing 138 mM sodium chloride, 6 mM potassium chloride, 1 mM calcium chloride, 1 mM magnesium chloride, 10 mM HEPES, pH 7.4,5 mM glucose, and 0.1% bovine serum albumin. 1.93 ml of loaded cells was transferred into a quartz cuvette. 50 μl of a peptide stock solution (2×10^−2 M) was added to the cells, and after 3 min of incubation 20 μl of human SDF-1α (10 μg/ml, PeproTech) was added to a stirred cuvette. The measurements were performed using luminescence spectrophotometer LS50 B (Perkin-Elmer). Ca^2+ mobilization in the cells in response to SDF-1α was measured by analysis of the ratio of fluorescence emitted at 510 nm after sequential excitation at 340 and 380 nm.
# The increase of intracellular Ca^2+ concentration mediated by a chemokine receptor in response to a cognate chemokine is a reliable assay for measurement of chemokine agonist activity. The human monocytic cell line THP-1 expresses a high level of CXCR4 and responds well to SDF-1α stimulation (FIG. 6A), so these cells were used to determine whether peptides 15D and 15K could block the activation of CXCR4.
# [2] = biological target: T1, CCR5 (Homo sapiens, UniProt P51681); test: Chemotaxis of HEK-CCR5 cells to RANTES (microchemotaxis chamber); type: cell-based; set-up: expressed in transfected cells; host or cells: HEK-293; conditions: for inhibition of RANTES-directed chemotactic response / induction of chemotaxis by peptide alone: HEK-CCR5 cells; for inhibition of RANTES-directed chemotactic response: RANTES 100 ng/ml, 3 hr; for induction of chemotaxis by peptide alone: tested at any concentration
# T1 sequence (P51681 whole entry): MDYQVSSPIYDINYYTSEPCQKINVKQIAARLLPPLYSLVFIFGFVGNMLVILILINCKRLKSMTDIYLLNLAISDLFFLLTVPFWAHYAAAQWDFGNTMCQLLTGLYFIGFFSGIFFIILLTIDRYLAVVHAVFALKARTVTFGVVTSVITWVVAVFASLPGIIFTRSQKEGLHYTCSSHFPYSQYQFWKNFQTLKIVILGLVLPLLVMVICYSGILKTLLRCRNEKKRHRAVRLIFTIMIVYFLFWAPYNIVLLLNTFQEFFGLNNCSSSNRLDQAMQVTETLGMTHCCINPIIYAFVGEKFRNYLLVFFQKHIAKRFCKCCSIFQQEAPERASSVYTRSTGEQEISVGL
# Method: Migration of HEK-CCR5 cells to RANTES alone, or the combination of RANTES and designated concentrations of either 15K or 15D peptides, were determined in micro-chemotaxis chambers. […] The results are representative of three independent experiments. *p<0.05.
# Chemotaxis assays for HEK-293 cells transfected with CCRS was performed as previously described (Howard et al., J. Biol. Chem. 274:16228-16234, 1999, incorporated herein by reference). Briefly, the chemokine RANTES, diluted in binding medium to 100 ng/ml, was placed in the lower wells of a microchemotaxis chamber. Polycarbonate membrane pretreated with rat tail collagen type 1 was placed over the chemokine solution. The cells (1×10^6/ml) were suspended in binding medium along with the exemplary peptides 15D or 15K at designated concentrations and placed in the upper wells of the chamber. After incubation for 3 hr the membrane was removed, stained using a Diff-Quik kit (Trends Scientific, Kalamazoo, Mich.) and counted. The results are expressed as the “chemotaxis index”, which represents the ratio of the number of cells in high powered field in test versus control samples.
# To achieve this goal, the capacity of these peptides to inhibit the chemotactic response of HEK-CCR5 cells to a cognate ligand of CCR5 receptors, the chemokine RANTES, was assayed.
# [3] = biological target: T1, CCR5; test: Binding of anti-CCR5 antibody 2D7 to HEK293/CCR5 cells (flow cytometry); set-up: expressed in transfected cells; host or cells: HEK-293; conditions: 0.1 mM peptide, 45 min 22° C.
# Method: CEMx174 cells were pelleted and resuspended at 10^6 cells/ml in PBS containing 1% BSA and 0.1% sodium azide (FACS buffer). Cells were then preincubated with designated concentrations of peptides or SDF-1-α (1 μg/ml) at 22° C. for 60 min. FITC-labeled anti-human CXCR4 antibody (clone 12G5, BD PharMingen, San Diego, Calif.) was added to the cells per the manufactures instructions and further incubated at 22° C. for 40 minutes. Cells were extensively washed with FACS buffer and analyzed using a FACS Calibur flowcytometer (Becton Dickinson). HEK/CCR5 cells were suspended in Dulbecco's PBS containing 1% FCS and 0.05% NaN3 (10^4 cells in 100 μl) and incubated with or without 5 μg of MIP-1β (PeproTech, Rocky Hill, N.J.), 0.1 mM peptide 15D or 15K for 45 min at 22° C. Cells were then treated with FITC-conjugated anti-human CCR5 antibody (2D7; BD PharMingen, San Diego, Calif.), and incubated for 30 min at 22° C. Cells were washed twice, and analyzed using a FACScan flow cytometer (Becton Dickinson Immunocytometry Systems, San Jose, Calif.).
# The effect of the exemplary peptides 15K and 15D on the binding of 2D7 antibodies to CCR5 was assayed to further evaluate the mechanism of anti-coreceptor activity of the peptides. […]
# The effects of peptides 15D and 15K on 2D7 antibody binding to HEK293/CCR5 cells were analyzed by flow cytometry.
# Chain of CXCR4 (P61073 whole entry): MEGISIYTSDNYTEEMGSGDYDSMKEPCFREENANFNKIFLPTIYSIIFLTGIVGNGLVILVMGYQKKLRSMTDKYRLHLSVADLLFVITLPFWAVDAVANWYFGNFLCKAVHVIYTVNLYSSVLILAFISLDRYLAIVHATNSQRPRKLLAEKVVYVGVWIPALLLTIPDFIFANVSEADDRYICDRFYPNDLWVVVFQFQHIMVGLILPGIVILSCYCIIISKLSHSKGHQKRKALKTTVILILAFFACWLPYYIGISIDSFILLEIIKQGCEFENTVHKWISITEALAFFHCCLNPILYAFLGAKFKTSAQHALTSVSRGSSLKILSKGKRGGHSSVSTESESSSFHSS
Substance,inhibition of Ca2+ mobilization in response to SDF-1α [1],"inhibitory activity on chemotaxis, one peptide compared with the other ([2]; 15D versus 15K, FIG. 2)",inhibition of RANTES-directed chemotactic response ([2]; FIG. 2),induction of chemotaxis by peptide alone [2],effect on 2D7 anti-CCR5 antibody binding [3]
I R K A H C N I S R A D W N D [Peptide 15D],completely inhibited,consistently exhibited greater inhibitory activity,completely blocked,did not induce detectable chemotaxis,No significant effect
IRKAHCNISRAKWND [Peptide 15K],inhibited Ca^2+ mobilization although less efficiently than 15D,–,completely blocked,did not induce detectable chemotaxis,No significant effect
